Experimental data: ChEMBL document CHEMBL1909046, “DrugMatrix in vitro pharmacology data”

Key:
Substance-K receptor = molecular target: T1, Substance-K receptor (Homo sapiens, UniProt P21452); type: cell membranes, CHO, Membrane; further: in other assays of this panel Not Active means under 50% inhibition at 10 µM
T1 sequence (P21452 whole entry): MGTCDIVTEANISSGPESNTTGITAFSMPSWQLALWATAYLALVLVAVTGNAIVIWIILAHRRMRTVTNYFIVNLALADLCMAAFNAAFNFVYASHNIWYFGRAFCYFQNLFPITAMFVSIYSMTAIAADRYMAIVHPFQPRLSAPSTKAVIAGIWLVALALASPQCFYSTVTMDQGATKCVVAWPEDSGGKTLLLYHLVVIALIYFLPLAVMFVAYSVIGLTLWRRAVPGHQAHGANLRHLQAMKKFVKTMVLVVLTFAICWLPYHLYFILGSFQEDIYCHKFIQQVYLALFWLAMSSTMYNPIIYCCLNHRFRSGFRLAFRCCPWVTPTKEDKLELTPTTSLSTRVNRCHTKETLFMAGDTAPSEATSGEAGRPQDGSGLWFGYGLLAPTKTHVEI

[1] = molecular target: Tyrosine-protein kinase Fyn (Homo sapiens, UniProt P06241); assay: biochemical; type: cell-based, Insect cells;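 further: enzymatic inhibition of Fyn kinase activity measured with Poly(Glu:Tyr) as the phosphorylation substrate; in other assays of this panel Not Active means under 50% inhibition at 10 µM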
[2] = molecular target: C-C chemokine receptor type 5 (Homo sapiens, UniProt P51681); type: cell membranes, Membrane; settings: hek293; further: in other assays of this panel Not Active means under 50% inhibition at 10 µM
[3] = molecular target: T2, Muscarinic acetylcholine receptor M5 (Homo sapiens, UniProt P08912); type: cell membranes, Membrane; settings: cho-k1; further: in other assays of this panel Not Active means under 50% inhibition at 10 µM
T2 sequence (P08912 whole entry): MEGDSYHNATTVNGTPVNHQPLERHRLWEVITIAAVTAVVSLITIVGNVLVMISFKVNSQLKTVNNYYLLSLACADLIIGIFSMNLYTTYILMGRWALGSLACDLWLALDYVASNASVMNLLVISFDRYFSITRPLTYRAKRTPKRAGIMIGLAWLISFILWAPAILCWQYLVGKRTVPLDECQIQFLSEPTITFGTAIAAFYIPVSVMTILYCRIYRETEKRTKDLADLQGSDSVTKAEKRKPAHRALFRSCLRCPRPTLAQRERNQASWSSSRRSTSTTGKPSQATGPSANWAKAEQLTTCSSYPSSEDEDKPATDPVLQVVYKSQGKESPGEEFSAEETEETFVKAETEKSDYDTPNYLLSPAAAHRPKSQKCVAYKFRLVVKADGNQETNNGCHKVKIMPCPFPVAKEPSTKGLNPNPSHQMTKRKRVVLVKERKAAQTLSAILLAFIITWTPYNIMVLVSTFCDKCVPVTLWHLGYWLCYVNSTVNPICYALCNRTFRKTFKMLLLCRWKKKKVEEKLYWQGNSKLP

Cytochrome P450 3A4 = Cytochrome P450 3A4 (Homo sapiens, UniProt P08684); settings: bti-tn-5b1-4; further: in other assays of this panel Not Active means under 50% inhibition at 10 µM
[4] = DRUGMATRIX: Platelet-Derived Growth Factor (PDGF) radioligand binding (ligand: [125I] PDGF); type: cell-based; settings: nih3t3; Not Active = under 50% inhibition at 10 µM
[5] = molecular target: T3, 5-hydroxytryptamine receptor 1A (Rattus norvegicus, UniProt P19327); type: cell membranes, CHO-K1, Membrane; further: in other assays of this panel Not Active means under 50% inhibition at 10 µM
T3 sequence (P19327 whole entry): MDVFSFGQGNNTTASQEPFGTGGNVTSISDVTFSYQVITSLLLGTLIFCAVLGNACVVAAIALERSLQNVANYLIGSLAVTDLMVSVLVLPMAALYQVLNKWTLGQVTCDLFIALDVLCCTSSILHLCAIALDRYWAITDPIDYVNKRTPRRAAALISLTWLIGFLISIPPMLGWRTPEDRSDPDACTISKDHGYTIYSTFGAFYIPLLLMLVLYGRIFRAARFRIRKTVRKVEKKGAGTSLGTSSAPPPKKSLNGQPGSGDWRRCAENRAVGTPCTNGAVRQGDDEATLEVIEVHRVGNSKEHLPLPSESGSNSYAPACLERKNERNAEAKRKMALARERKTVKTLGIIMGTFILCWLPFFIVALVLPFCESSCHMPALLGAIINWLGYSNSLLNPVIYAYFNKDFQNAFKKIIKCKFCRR

Sequence of Cytochrome P450 3A4 (P08684 whole entry): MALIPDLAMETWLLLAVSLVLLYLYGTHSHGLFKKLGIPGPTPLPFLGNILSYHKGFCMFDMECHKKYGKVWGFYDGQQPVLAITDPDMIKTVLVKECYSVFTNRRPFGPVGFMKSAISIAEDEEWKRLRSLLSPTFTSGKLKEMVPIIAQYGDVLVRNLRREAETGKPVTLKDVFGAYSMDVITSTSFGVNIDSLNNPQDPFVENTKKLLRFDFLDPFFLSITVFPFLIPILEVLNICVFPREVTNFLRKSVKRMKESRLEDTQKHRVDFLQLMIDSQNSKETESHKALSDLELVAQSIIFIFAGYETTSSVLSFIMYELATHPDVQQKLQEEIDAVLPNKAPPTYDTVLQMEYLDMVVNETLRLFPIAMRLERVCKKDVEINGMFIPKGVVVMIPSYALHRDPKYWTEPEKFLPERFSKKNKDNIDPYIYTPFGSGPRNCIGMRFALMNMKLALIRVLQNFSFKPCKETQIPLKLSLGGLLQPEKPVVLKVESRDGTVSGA
Sequence of C-C chemokine receptor type 5 (P51681 whole entry): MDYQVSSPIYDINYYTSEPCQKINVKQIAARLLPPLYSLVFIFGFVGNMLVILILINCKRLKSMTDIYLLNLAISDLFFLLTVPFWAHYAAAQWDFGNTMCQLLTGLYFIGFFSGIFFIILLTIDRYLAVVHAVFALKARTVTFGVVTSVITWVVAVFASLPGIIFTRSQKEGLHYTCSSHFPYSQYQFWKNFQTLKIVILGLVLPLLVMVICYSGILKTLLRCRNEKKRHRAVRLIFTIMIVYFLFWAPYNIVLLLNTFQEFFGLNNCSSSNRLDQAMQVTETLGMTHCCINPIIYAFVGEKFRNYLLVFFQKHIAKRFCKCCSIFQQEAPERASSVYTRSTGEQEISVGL
Sequence of Tyrosine-protein kinase Fyn (P06241 whole entry): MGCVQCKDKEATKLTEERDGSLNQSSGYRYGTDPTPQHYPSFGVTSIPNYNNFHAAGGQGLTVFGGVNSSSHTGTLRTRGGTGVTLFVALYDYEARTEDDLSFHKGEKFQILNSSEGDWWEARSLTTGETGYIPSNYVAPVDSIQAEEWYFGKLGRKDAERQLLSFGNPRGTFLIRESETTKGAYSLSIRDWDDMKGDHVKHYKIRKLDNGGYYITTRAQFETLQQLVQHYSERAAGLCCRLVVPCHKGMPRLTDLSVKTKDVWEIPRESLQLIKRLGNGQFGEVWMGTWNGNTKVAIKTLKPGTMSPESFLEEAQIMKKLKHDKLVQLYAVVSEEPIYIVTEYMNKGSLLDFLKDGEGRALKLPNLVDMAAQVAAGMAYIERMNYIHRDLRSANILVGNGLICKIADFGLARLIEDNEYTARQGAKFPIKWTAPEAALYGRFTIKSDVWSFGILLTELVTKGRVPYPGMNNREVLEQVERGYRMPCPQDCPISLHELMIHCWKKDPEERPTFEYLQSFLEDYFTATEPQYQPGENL

SMILES | IC50 (Substance-K receptor; cho) | IC50 ([1]; insect cells) | IC50 [2] | IC50 [3] | IC50 (Cytochrome P450 3A4) | Ki (Cytochrome P450 3A4) | IC50 [4] | Ki [4] | IC50 ([5]; cho-k1) | IC50 ([1]; read-out: IC50) [µM] | IC50 (Substance-K receptor; read-out: IC50) [µM] | Ki (Substance-K receptor; read-out: Ki) [µM] | IC50 ([5]; read-out: IC50) [µM] | Ki ([5]; read-out: Ki) [µM]
CCc1oc2ccccc2c1C(=O)c1cc(Br)c(O)c(Br)c1 [BENZBROMARONE] | Not Active | Not Active | Not Active | Not Active | Not Active | Not Active | Not Active | Not Active | Not Active |  |  |  |  | 
O=c1cc(-c2ccccc2)oc2ccc3ccccc3c12 [BETA-NAPHTHOFLAVONE] | Not Active |  | Not Active | Not Active | Not Active | Not Active | Not Active | Not Active | Not Active | 2.51 |  |  |  | 
CS(=O)(=O)OCCCCOS(C)(=O)=O [BUSULFAN] | Not Active | Not Active | Not Active | Not Active | Not Active | Not Active | Not Active | Not Active | Not Active |  |  |  |  | 
O=C(/C=C/c1ccc(O)c(O)c1)OCCc1ccccc1 [CAFFEIC ACID PHENETHYL ESTER] | Not Active |  | Not Active | Not Active | Not Active | Not Active | Not Active | Not Active | Not Active | 4.21 |  |  |  | 
COc1cc(CNC(=O)CCCC/C=C/C(C)C)ccc1O [CAPSAICIN] | Not Active | Not Active | Not Active | Not Active | Not Active | Not Active | Not Active | Not Active | Not Active |  |  |  |  | 
NC(=O)N1c2ccccc2C=Cc2ccccc21 [CARBAMAZEPINE] | Not Active | Not Active | Not Active | Not Active | Not Active | Not Active | Not Active | Not Active | Not Active |  |  |  |  | 
CCOC(=O)n1ccn(C)c1=S [CARBIMAZOLE] | Not Active | Not Active | Not Active | Not Active | Not Active | Not Active | Not Active | Not Active | Not Active |  |  |  |  | 
Oc1ccccc1O [CATECHOL] | Not Active |  | Not Active | Not Active | Not Active | Not Active | Not Active | Not Active | Not Active | 17.4 |  |  |  | 
CO[C@@]1(NC(=O)CSCC#N)C(=O)N2C(C(=O)O)=C(CSc3nnnn3C)CS[C@@H]21 [CEFMETAZOLE] | Not Active | Not Active | Not Active | Not Active | Not Active | Not Active | Not Active | Not Active | Not Active |  |  |  |  | 
CN(C(=O)CCCOc1ccc2[nH]c(=O)ccc2c1)C1CCCCC1 [CILOSTAMIDE] | Not Active | Not Active | Not Active | Not Active | Not Active | Not Active | Not Active | Not Active | Not Active |  |  |  |  | 
CC(C)(Oc1ccc(C2CC2(Cl)Cl)cc1)C(=O)O (centres undefined) [CIPROFIBRATE] | Not Active | Not Active | Not Active | Not Active | Not Active | Not Active | Not Active | Not Active | Not Active |  |  |  |  | 
Nc1nc(Cl)nc2c1ncn2[C@H]1C[C@H](O)[C@@H](CO)O1 [CLADRIBINE] | Not Active | Not Active | Not Active | Not Active | Not Active | Not Active | Not Active | Not Active | Not Active |  |  |  |  | 
CC[C@H]1OC(=O)[C@H](C)[C@@H](O[C@H]2C[C@@](C)(OC)[C@@H](O)[C@H](C)O2)[C@H](C)[C@@H](O[C@@H]2O[C@H](C)C[C@H](N(C)C)[C@H]2O)[C@](C)(OC)C[C@@H](C)C(=O)[C@H](C)[C@@H](O)[C@]1(C)O [CLARITHROMYCIN] | Not Active | Not Active | Not Active | Not Active | Not Active | Not Active | Not Active | Not Active | Not Active |  |  |  |  | 
O=C(O)c1cc(=O)c2c(OCC(O)COc3cccc4oc(C(=O)O)cc(=O)c34)cccc2o1 [CROMOLYN] | Not Active | Not Active | Not Active | Not Active | Not Active | Not Active | Not Active | Not Active | Not Active |  |  |  |  | 
O=P1(N(CCCl)CCCl)NCCCO1 (centres undefined) [CYCLOPHOSPHAMIDE ANHYDROUS] | Not Active | Not Active | Not Active | Not Active | Not Active | Not Active | Not Active | Not Active | Not Active |  |  |  |  | 
CC(=O)O[C@]1(C(C)=O)CC[C@H]2[C@@H]3C=C(Cl)C4=CC(=O)[C@@H]5C[C@@H]5[C@]4(C)[C@H]3CC[C@@]21C [CYPROTERONE ACETATE] | Not Active | Not Active | Not Active | Not Active | Not Active | Not Active | Not Active | Not Active | Not Active |  |  |  |  | 
Nc1nc(N)nc(NC2CC2)n1 [CYROMAZINE] | Not Active | Not Active | Not Active | Not Active | Not Active | Not Active | Not Active | Not Active | Not Active |  |  |  |  | 
C#C[C@]1(O)CC[C@H]2[C@@H]3CCC4=Cc5oncc5C[C@]4(C)[C@H]3CC[C@@]21C [DANAZOL] |  | Not Active | Not Active | Not Active | Not Active | Not Active | Not Active | Not Active | Not Active |  | 26.6 | 8.86 |  | 
CCN[C@@H](C)Cc1cccc(C(F)(F)F)c1 [DEXFENFLURAMINE] | Not Active | Not Active | Not Active | Not Active | Not Active | Not Active | Not Active | Not Active |  |  |  |  | 3.4 | 1.94
C[C@H](C(=O)O)c1cccc(C(=O)c2ccccc2)c1 [DEXKETOPROFEN] | Not Active | Not Active | Not Active | Not Active | Not Active | Not Active | Not Active | Not Active | Not Active |  |  |  |  | 
Cc1c(N(C)CS(=O)(=O)[O-])c(=O)n(-c2ccccc2)n1C.[Na+] [DIPYRONE SODIUM] | Not Active | Not Active | Not Active | Not Active | Not Active | Not Active | Not Active | Not Active | Not Active |  |  |  |  | 
CC(CCc1ccc(O)cc1)NCCc1ccc(O)c(O)c1 (centres undefined) [DOBUTAMINE] | Not Active |  | Not Active | Not Active | Not Active | Not Active | Not Active | Not Active | Not Active | 3.98 |  |  |  | 
CCn1cc(C(=O)O)c(=O)c2cc(F)c(N3CCNCC3)nc21 [ENOXACIN] | Not Active | Not Active | Not Active | Not Active | Not Active | Not Active | Not Active | Not Active | Not Active |  |  |  |  | 
